Reference: patent US8642622B2, “Piperidinyl compound as a modulator of chemokine receptor activity” (Bristol-Myers Squibb Company, priority 2010, dated 2014)

Assays:
[1] = Single-dose pharmacokinetics in rats; format: in vivo; conditions: male, Sprague-Dawley, rat, plasma; for clearance: intravenous; for bioavailability: po, oral solution, read-out: Rat oral bioavailability when dosed as solution
Method: Serial blood samples were collected for all studies from the jugular vein at various time points post dose (0.17 (or 0.25 for oral), 0.5, 0.75, 1, 2, 4, 6, 8 and 24 h, for example). Plasma samples were analyzed by LC-MS/MS.
Additional studies evaluating suspensions of crystalline drug substance in aqueous medium were performed as described above.

Human PXR = target: T1, Human PXR (Homo sapiens, UniProt O75469); assay: PXR transactivation assay (HepG2, CYP3A-Luc reporter); format: cell-based; conditions: reported as EC60
T1 construct: expressed in transfected cells; host or cells: HepG2
T1 sequence (O75469 1-434): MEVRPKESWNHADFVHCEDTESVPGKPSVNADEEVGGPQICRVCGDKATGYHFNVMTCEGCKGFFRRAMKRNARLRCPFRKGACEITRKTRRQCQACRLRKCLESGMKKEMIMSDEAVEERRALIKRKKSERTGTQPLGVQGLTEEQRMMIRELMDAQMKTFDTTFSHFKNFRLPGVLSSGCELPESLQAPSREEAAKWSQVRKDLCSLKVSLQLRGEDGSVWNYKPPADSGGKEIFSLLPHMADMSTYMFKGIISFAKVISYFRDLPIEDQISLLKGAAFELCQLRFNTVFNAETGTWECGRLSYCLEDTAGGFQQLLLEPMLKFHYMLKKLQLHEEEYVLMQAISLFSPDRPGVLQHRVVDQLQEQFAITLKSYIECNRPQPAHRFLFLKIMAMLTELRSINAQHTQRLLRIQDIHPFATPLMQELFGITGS
Text: The cell culture medium used is DMEM. […] Charcoal/dextran treated fetal bovine serum (FBS) was purchased from Hyclone (Logan, Utah). HepG2 cells were obtained from ATCC (Manassas, Va.). Human PXR-pcDNA3 and luciferase reporter containing CYP3A4 promoter, CYP3A-Luc, were generated at Bristol-Myers Squibb. White tissue culture (TC)-surface 384-well plates were purchased from Perkin Elmer (Boston, Mass.). Luciferase substrate (Steady-Glo) was purchased from Promega (Madison, Wis.). Control compounds rifampicin, mifepristone, and sulfinpyrazone were purchased from Sigma (St. Louis, Mo.).
Culture of HepG2 cells is performed in T175 flasks using DMEM containing 10% FBS. The transfection mixture contains 1 μg/mL of PXR-pcDNA3 plasmid DNA, 20 μg/ml of Cyp3A-Luc plasmid DNA, 90 μL/mL of Lipofectamine 2000, and serum-free medium. After incubating at room temperature for 20 minutes, the transfection mixture (1 ml per flask) is applied to the cells in fresh medium (20 mL per flask), and flasks incubated at 37° C. (5% CO2) overnight.
The flasks are then tapped vigorously to break up cell aggregates. After the addition of 8 mL of DMEM containing 5% charcoal/dextran-treated FBS, the entire mixture is transferred to conical tubes. Cells are then centrifuged at 1000 rpm for 5 minutes. Cell pellets are resuspended to a final count of ˜7×10^6 cells/mL in freezing media (DMEM containing 20% serum and 10% DMSO). The cell suspension is aliquoted into 15-mL polypropylene tubes, 5 mL per tube. Cells are slowly frozen by placing in a Styrofoam-insulated container at −80° C. overnight. Vials are transferred to an Ultracold (−140° C.) freezer after 24 hours for long-term storage.
Vials of cryopreserved cells are thawed rapidly in a warm water bath for five minutes. Cells are pooled and diluted to 50 mL in a 50-mL conical vial. The thawed cells are centrifuged at 1500 rpm for 5 minutes to collect the cells and the supernatant discarded. Cells are then resuspended in fresh Media II (DMEM containing 5% charcoal/dextran-treated FBS, 1% Penicillin/Streptomycin, 100 μM Non-essential Amino Acids, 1 mM Sodium Pyruvate, and 2 mM L-Glutamine), counted using the Guava Cell Counter, and diluted to 1.6×10^5 cells/ml in the same media.
Fifty microliters of cell mixture is added to wells in columns 1-23 of white tissue-culture treated 384-well plates containing 0.25 μL of test compound dissolved in 100% DMSO. Fifty microliters of Media II is added to wells in column 24. The plates are incubated at 37° C. (5% CO2) for 24 hours, then 5 μL of Alamar Blue reagent (Trek Diagnostics, Cat #00-100) is added to each well. Plates are then incubated an additional two hours at 37° C., 5% CO2 and then one hour at room temperature. […] After the fluorescence is measured, 25 μL of luciferase substrate (Steady-Glo, Promega) is added to each well. The plates are incubated for fifteen minutes at room temperature, after which the luminescence is read on a PheraStar (BMG Labtech) plate reader.
Rifampicin (10 μM), a well-known agonist of PXR, is included in each plate as an internal standard and positive control. The data is then expressed as percent control (% CTRL), where the control signal is the signal from the 10 μM rifampicin and the blank signal is that from the DMSO vehicle. % CTRL=((Compound signal−Blank signal)/(Control signal−Blank signal))*100
The EC50 is defined as the concentration corresponding to half of the maximal response derived from the fitted 20-point curve as determined using a four-parameter logistic regression model. Additionally, compounds may also be reported as EC20 or EC60.

[2] = Human liver microsomal metabolism, Assay Conditions A; format: in vitro ADME; conditions: 0.5 μM compound, 10 minutes, 37° C.
Method: Test compound is received as a 3.5 mM stock solution in 100 percent DMSO. Compound is diluted to create a 50 μM acetonitrile (ACN) solution containing 1.4% DMSO, which is then used as a 100× stock for incubation with microsomes. Each compound is tested in duplicate separately in each of three species in the Metabolic Stability-Human, Rat, and Mouse assay suite or as individual species in the Metabolic Stability-Dog or Metabolic Stability-Monkey suites. Compound, NADPH and liver microsome solutions are combined for incubation in three steps:
152 μL of liver microsome suspension, protein concentration of 1.1 mg/mL in 100 mM NaPi, pH 7.4, 6.6 mM MgCl2 buffer, is pre-warmed at 37° C.
• 1) 1.7 μL of 50 μM compound (98.6% ACN, 1.4% DMSO) is added to the same tube and pre-incubated at 37° C. for 5 minutes. • 2) The reaction is initiated by the addition of 17 μL of pre-warmed 10 mM NADPH solution in 100 mM NaPi, pH 7.4. • 3) Reaction components are mixed well, and 75 μL are immediately transferred into 150 μl quench/stop solution (zero-time point, To). Reactions are incubated at 37° C. for 10 minutes and then an additional 75 μL aliquot is transferred into 150 μL quench solution. Acetonitrile containing 100 μM DMN (a UV standard for injection quality control), is used as the quench solution to terminate metabolic reactions. • 4) Quenched mixtures are centrifuged at 1500 rpm (˜500×g) in an Allegra X-12 centrifuge, SX4750 rotor (Beckman Coulter Inc., Fullerton, Calif.) for fifteen minutes to pellet denatured microsomes. A volume of 90 μL of supernatant extract, containing the mixture of parent compound and its metabolites, is then transferred to a separate 96-well plate for UV-LC/MS-MS analysis to determine the percent of parent compound that is remaining in the mixture.

[3] = Human liver microsomal metabolism, Assay Conditions B; format: in vitro ADME; conditions: 3 μM compound, 10 minutes, 37° C.
Method: Test compound is received as 20 mM in DMSO. Compound is diluted to create a 300 μM acetonitrile (ACN) solution containing 1.5% DMSO, which is then used as a 100× stock for incubation with microsomes. Each compound is tested in duplicate separately in each of three species in the Metabolic Stability-Human, Rat, Mouse assay suite or individual species in the Metabolic Stability-Dog or Metabolic Stability-Monkey suites. Compound, NADPH and liver microsome solutions are combined for incubation in three steps: • 1. 450 μL of liver microsome suspension, protein concentration of 1 mg/mL in 100 mM NaPi, pH 7.4, 6.6 mM MgCl2 buffer, are pre-warmed at 37° C. • 2. […] of 300 μM compound (98.5% CAN, 1.5% DMSO) is added to the same tube. • 3. The reaction is initiated by the addition of 50 μL of pre-warmed 5 mM NADPH solution in 100 mM NaPi, pH 7.4.
Reaction components are mixed well and 150 μL removed to quench/stop solution immediately for the zero-minute time point. Reactions are incubated at 37° C. for 10 minutes and then an additional 150 μL removed from incubation. Aliquots removed are combined with 300 μL ACN which contains 100 μM DMN as a UV standard for detection.
Quenched mixtures are centrifuged at 1500 rpm (˜500×g) in an Allegra X-12 centrifuge, SX4750 rotor (Beckman Coulter Inc., Fullerton, Calif.) for fifteen minutes to pellet denatured microsomes. A volume of 110 μl of supernatant extract, containing the mixture of parent compound and its metabolites, is then transferred to a separate 96-well plate for UV-LC/MS-MS analysis to determine the percent of parent compound that is remaining in the mixture.

clearance [1] | bioavailability [1] | PXR EC60 (Human PXR) | Human Liver Microsomal Metabolism % remaining (Assay Conditions A) [2] | Human Liver Microsomal Metabolism % remaining (Assay Conditions B) [3] | SMILES
75 mL/min/kg | 9% |  |  |  | CC(C)[C@@H](NC(=O)c1cccc(C(=O)O)c1)C(=O)N1CC[C@](O)(c2ccc(Cl)cc2)C(C)(C)C1 [Example 463]
 |  | 1.12 (EC60) μM | 67% | 33% | CC(C)CC(=O)N[C@@H](C(=O)N1CC[C@](O)(c2ccc(Cl)cc2)C(C)(C)C1)C(C)C [Example 466]
 |  | >50 (EC60) μM | 59% (A) |  | CC[C@@H](C)NC(=O)N[C@@H](C(=O)N1CC[C@](O)(c2ccc(Cl)cc2)C(C)(C)C1)C(C)C [Example 897]
 |  |  | 100% (A)/100% (B) | 100% (A)/100% (B) | CC(C)[C@@H](NC(=O)CC(C)(C)O)C(=O)N1CC[C@](O)(c2ccc(Cl)cc2)C(C)(C)C1 [Example 1356]
 |  | 10.2 (EC60) μM | 99% (A) |  | CC(C)NC(=O)N[C@@H](C(=O)N1CC[C@](O)(c2ccc(Cl)cc2)C(C)(C)C1)C(C)C [Example 850]
10 mL/min/kg | 8% |  | 47% | 16% | CC(C)[C@@H](NC(=O)C1CCCC1)C(=O)N1CC[C@](O)(c2ccc(Cl)cc2)C(C)(C)C1 [Example 460]
